{"source": "paper PMC10906926", "about": "(Science Advances, 2024)", "test_system": "DIO mice", "experiment": "Weight loss recovery of mPD5 relative to liraglutide", "format": "in vivo", "conditions": "0.09 mg kg−1 s.c. once daily for 9 days"}
{"substance": "liraglutide", "values": [{"measurement": "Weight regain upon treatment cessation", "value": "promptly initiated weight regain upon treatment cessation"}]}
